Columns and labels:
Assay in all cases: Eurofins kinase selectivity profile against 380 other human recombinant kinases (Table S2)
Type in all cases: biochemical
[1] = molecular target: T1, 380 human recombinant protein kinases (Homo sapiens, UniProt Q9UIK4); details: DAPK2(h), read-out: Inhibition rate
T1 construct: purchased Eurofins (Celle Lévescault)
In short: (§1)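 Outsourced panel: 380 human recombinant kinases; inhibitor tested at various concentrations; purpose: MK2 selectivity check.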

[2] = molecular target: T2, 380 human recombinant protein kinases (Homo sapiens, UniProt Q14289); details: Pyk2(h), read-out: Inhibition rate
T2 construct: purchased Eurofins (Celle Lévescault)
T2 sequence (Q14289 whole entry): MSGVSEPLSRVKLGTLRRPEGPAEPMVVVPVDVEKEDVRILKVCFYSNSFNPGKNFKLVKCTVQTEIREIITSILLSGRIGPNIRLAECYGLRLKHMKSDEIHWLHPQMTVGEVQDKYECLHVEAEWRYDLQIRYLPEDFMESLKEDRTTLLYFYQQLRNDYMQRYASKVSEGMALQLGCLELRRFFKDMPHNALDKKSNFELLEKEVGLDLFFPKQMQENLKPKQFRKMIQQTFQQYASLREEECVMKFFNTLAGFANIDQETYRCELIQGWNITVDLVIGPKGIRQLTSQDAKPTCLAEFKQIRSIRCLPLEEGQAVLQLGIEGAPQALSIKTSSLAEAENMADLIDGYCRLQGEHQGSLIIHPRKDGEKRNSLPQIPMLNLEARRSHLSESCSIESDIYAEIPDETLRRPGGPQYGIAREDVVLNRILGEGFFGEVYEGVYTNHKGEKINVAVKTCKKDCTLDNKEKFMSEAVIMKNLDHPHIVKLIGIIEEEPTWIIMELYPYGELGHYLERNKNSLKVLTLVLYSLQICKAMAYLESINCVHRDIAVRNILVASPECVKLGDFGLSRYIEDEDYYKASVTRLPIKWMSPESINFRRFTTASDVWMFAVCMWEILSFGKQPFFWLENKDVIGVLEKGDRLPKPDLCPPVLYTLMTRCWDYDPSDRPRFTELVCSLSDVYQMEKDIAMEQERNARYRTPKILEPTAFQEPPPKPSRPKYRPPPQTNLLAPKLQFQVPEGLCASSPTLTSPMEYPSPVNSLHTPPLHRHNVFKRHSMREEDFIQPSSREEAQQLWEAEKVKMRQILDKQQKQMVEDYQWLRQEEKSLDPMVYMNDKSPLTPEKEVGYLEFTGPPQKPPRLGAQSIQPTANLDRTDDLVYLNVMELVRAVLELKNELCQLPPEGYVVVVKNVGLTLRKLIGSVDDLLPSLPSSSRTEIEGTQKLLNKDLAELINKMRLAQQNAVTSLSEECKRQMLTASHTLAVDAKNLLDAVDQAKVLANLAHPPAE
In short: as §1

[3] = molecular target: T3, 380 human recombinant protein kinases (Homo sapiens, UniProt Q9H093); details: NUAK2(h), read-out: Inhibition rate
T3 construct: purchased Eurofins (Celle Lévescault)
T3 sequence (Q9H093 1-628): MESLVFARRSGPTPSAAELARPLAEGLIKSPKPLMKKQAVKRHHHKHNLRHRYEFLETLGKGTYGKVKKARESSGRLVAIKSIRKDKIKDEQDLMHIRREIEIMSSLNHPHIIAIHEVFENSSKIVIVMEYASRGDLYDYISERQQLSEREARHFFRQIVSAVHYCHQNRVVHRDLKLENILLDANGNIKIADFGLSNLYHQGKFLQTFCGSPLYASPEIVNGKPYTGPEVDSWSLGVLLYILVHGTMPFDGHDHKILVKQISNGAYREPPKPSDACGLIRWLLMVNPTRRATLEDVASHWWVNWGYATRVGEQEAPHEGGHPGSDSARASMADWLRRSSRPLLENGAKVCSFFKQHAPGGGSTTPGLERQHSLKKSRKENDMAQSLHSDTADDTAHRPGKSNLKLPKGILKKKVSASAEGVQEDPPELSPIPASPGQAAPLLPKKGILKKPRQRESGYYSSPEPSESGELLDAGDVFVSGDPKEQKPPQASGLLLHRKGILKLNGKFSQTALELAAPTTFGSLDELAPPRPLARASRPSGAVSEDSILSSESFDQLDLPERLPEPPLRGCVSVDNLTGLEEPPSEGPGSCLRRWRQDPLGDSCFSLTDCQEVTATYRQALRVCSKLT
In short: as §1

[4] = molecular target: T4, 380 human recombinant protein kinases (Homo sapiens, UniProt O00418); details: eEF-2K(h), read-out: Inhibition rate
T4 construct: purchased Eurofins (Celle Lévescault)
T4 sequence (O00418 1-725): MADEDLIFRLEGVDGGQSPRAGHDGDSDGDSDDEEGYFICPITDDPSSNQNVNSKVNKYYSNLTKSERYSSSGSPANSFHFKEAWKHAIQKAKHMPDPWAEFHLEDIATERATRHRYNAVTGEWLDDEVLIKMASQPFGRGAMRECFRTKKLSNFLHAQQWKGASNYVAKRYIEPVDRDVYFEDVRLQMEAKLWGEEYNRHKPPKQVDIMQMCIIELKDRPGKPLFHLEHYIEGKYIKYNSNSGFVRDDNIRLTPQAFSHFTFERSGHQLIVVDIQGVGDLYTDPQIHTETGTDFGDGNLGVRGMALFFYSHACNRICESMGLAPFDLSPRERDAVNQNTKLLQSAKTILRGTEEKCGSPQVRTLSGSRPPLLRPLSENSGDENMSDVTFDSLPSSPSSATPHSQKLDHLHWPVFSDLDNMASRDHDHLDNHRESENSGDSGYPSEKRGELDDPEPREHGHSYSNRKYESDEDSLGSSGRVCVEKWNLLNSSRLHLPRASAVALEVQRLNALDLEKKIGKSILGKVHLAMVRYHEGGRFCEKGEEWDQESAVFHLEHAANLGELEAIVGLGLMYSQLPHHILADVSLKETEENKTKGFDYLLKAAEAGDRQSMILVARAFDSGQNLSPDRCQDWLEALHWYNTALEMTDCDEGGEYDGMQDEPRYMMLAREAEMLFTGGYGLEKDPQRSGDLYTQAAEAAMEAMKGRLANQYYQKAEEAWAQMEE
In short: as §1

[5] = molecular target: T5, 380 human recombinant protein kinases (Homo sapiens, UniProt Q15746); details: MLCK(h), read-out: Inhibition rate
T5 construct: purchased Eurofins (Celle Lévescault)
T5 sequence (Q15746 whole entry): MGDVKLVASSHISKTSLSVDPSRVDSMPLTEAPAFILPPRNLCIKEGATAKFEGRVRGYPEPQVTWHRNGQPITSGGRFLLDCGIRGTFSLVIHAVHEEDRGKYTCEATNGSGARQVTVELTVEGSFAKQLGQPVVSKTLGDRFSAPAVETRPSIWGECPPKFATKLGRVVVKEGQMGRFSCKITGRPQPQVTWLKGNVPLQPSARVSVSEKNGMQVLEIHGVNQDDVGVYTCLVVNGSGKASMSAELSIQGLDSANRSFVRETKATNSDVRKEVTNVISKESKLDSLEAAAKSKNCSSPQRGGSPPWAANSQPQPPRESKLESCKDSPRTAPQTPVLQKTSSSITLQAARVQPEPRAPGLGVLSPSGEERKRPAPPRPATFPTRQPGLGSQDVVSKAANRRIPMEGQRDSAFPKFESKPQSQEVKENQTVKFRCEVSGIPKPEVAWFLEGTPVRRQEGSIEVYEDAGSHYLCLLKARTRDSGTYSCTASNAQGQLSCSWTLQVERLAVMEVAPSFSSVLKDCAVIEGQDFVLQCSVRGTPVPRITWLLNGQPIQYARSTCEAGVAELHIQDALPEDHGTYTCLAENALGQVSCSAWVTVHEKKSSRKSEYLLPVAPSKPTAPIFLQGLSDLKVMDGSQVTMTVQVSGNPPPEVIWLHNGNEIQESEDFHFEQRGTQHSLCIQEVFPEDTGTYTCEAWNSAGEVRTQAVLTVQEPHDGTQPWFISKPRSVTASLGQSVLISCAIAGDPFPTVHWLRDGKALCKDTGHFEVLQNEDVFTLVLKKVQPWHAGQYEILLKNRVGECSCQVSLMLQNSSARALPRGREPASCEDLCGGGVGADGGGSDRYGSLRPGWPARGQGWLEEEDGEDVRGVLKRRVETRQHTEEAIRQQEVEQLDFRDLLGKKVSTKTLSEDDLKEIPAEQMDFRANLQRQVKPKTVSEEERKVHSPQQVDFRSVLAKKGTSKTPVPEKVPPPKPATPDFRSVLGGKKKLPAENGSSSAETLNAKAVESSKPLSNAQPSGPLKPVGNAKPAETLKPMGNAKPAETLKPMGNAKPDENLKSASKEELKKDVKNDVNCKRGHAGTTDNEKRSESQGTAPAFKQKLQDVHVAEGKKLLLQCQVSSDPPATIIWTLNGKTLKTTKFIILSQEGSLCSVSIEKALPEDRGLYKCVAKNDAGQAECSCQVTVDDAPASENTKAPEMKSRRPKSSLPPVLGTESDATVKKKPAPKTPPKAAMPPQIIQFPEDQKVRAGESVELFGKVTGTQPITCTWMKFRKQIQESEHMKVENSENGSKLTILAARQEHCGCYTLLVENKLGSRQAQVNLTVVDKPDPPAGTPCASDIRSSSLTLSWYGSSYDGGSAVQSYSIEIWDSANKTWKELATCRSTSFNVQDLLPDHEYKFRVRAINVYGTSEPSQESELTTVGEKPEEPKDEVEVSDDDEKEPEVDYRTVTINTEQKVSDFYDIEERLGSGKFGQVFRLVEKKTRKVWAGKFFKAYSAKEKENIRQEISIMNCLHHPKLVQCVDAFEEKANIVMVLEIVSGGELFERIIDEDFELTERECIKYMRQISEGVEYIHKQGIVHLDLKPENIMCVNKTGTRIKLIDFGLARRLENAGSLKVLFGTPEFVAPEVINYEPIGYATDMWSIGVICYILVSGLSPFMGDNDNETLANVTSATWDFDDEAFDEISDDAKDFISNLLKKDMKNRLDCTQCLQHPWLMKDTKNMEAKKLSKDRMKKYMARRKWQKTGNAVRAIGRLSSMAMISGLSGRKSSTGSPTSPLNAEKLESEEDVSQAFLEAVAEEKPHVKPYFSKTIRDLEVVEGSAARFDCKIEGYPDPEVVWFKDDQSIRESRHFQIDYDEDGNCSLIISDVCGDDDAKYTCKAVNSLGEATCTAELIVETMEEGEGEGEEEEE
In short: as §1

[6] = molecular target: T6, 380 human recombinant protein kinases (Homo sapiens, UniProt P42681); details: Txk(h), read-out: Inhibition rate (%)
T6 construct: purchased Eurofins (Celle Lévescault)
T6 sequence (P42681 1-527): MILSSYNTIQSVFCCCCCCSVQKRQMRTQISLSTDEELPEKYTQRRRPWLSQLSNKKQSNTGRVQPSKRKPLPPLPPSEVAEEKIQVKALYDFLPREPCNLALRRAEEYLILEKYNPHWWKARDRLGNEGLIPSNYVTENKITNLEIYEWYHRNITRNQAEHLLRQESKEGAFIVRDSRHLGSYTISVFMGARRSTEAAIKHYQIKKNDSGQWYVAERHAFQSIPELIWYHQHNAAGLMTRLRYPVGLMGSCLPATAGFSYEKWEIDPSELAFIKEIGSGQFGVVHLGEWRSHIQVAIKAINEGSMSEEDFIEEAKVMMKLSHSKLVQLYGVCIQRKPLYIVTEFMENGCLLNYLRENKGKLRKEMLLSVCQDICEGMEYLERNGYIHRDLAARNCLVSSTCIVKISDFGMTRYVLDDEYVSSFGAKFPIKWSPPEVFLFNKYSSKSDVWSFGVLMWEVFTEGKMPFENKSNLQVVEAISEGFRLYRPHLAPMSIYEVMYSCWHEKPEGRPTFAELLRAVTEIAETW
In short: as §1

[7] = molecular target: T7, 380 human recombinant protein kinases (Homo sapiens, UniProt Q16513); details: PRK2(h), read-out: Inhibition rate
T7 construct: purchased Eurofins (Celle Lévescault)
T7 sequence (Q16513 whole entry): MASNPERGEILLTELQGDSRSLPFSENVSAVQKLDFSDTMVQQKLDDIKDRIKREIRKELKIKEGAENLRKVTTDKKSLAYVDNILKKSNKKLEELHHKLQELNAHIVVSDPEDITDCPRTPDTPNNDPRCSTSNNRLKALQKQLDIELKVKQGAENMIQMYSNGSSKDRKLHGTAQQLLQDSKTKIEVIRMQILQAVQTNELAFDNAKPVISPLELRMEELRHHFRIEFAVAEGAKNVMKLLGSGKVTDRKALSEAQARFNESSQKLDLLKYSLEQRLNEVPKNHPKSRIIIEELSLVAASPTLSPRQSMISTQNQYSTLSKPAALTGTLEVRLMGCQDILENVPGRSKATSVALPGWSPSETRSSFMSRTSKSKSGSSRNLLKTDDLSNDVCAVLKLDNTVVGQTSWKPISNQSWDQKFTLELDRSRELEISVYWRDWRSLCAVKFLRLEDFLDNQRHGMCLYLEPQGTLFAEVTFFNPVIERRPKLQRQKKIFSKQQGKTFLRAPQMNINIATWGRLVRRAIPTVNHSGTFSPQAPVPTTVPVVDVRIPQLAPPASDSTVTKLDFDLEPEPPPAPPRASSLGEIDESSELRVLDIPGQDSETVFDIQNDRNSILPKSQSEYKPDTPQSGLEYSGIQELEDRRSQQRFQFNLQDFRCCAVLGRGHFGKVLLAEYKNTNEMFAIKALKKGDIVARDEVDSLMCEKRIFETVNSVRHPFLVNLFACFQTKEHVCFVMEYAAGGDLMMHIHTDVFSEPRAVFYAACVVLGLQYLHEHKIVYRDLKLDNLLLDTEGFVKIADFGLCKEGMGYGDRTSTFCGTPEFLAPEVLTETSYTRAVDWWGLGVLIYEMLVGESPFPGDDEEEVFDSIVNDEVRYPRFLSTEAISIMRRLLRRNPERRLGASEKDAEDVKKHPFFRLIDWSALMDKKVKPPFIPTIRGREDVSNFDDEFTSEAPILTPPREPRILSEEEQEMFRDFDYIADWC
In short: as §1

[8] = molecular target: T8, 380 human recombinant protein kinases (Homo sapiens, UniProt Q9Y2H1); details: NDR2(h), read-out: Inhibition rate
T8 construct: purchased Eurofins (Celle Lévescault)
T8 sequence (Q9Y2H1 whole entry): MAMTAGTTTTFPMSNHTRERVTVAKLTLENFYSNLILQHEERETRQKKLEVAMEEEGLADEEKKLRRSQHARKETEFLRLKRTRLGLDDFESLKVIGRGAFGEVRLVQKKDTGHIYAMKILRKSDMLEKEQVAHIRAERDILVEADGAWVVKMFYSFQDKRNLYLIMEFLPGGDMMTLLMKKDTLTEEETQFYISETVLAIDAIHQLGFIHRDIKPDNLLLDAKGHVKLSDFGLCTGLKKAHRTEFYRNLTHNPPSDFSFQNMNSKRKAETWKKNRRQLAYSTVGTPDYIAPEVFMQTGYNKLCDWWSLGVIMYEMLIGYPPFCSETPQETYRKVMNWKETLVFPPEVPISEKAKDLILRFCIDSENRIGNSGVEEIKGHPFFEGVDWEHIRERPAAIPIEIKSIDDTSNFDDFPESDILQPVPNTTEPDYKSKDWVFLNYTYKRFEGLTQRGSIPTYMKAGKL
In short: as §1

T1 sequence (Q9UIK4 whole entry): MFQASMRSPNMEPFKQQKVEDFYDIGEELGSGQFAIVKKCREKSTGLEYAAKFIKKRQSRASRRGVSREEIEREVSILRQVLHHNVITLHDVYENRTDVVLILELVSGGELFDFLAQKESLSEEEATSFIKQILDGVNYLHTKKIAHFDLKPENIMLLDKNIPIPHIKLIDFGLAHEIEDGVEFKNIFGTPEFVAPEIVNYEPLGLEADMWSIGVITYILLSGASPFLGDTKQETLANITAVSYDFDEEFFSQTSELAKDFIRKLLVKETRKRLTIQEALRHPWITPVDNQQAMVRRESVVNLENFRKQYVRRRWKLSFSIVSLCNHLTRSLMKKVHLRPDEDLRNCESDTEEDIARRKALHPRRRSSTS

With `C=CC(=O)Nc1cc(-c2cc(-c3cc4c([nH]3)CCNC4=O)ccn2)ccc1OC(F)(F)F` [compound 11] the inhibition at 0.01 µM ([1]; 10 nM) was 8%, the inhibition at 0.1 µM ([1]; 100 nM) was 3% and the inhibition at 1 µM ([1]; 1000 nM) was 13%. The inhibition at 0.01 µM ([2]; 10 nM) was -11%, the inhibition at 0.1 µM ([2]; 100 nM) was -5% and the inhibition at 1 µM ([2]; 1000 nM) was 6%. It also gave an inhibition at 0.01 µM ([3]; 10 nM) of -16%, an inhibition at 0.1 µM ([3]; 100 nM) of -8% and an inhibition at 1 µM ([3]; 1000 nM) of 8%. The inhibition at 0.01 µM ([4]; 10 nM) was -4%, the inhibition at 0.1 µM ([4]; 100 nM) was -10% and the inhibition at 1 µM ([4]; 1000 nM) was -27%. For the same molecule, the inhibition at 0.01 µM ([5]; 10 nM) was -10%, the inhibition at 0.1 µM ([5]; 100 nM) was 0% and the inhibition at 1 µM ([5]; 1000 nM) was 34%. It also gave an inhibition at 0.01 µM ([6]; 10 nM) of -3%, an inhibition at 0.1 µM ([6]; 100 nM) of 1% and an inhibition at 1 µM ([6]; 1000 nM) of -1%. The inhibition at 0.01 µM ([7]; 10 nM) was -2%, the inhibition at 0.1 µM ([7]; 100 nM) was 3% and the inhibition at 1 µM ([7]; 1000 nM) was 5%. For the same molecule, the inhibition at 0.01 µM ([8]; 10 nM) was -5%, the inhibition at 0.1 µM ([8]; 100 nM) was -10% and the inhibition at 1 µM ([8]; 1000 nM) was -2%.
